Measurements taken from article PMC7019903 (Viruses, 2020).
Like-named read-outs stand apart in the source and are kept apart here.

Experiments:
in vitro [1] = conditions: African green monkey
in vitro [2] = conditions: Mesocricetus auratus (hamster)
in vitro [3] = conditions: Bos taurus (cattle)
[4] = tested on: Hantaan (HTNV) (strain 76–118); experiment: microbe, parasite or virus in culture; assay type: cell-based, Hantaan virus; conditions: for EC50: read-out: HTNV EC50
in vitro [5] = conditions: Cercopithecus aethiops (monkey)
in vitro [6] = conditions: human
HTNV [7] = assay type: cell-based, Hantaan virus
HTNV [8] = conditions: read-out: EC50 against HTNV; cited from earlier work
[9] = Orthohantavirus hantanense, Vero C1008, 168 h

SMILES	CC50 (in vitro [1]) [µM]	CC50 (in vitro [2]) [µM]	CC50 (in vitro [3]) [µM]	EC50 [4, 9] [µM]	CC50 (in vitro [5]) [µM]	CC50 (in vitro [6]) [µM]	other results
CCCCNC(=O)Nc1ccc(-n2nc3ccccc3n2)cc1 [3m]	> 30	> 100	> 100	> 30	> 100	> 100	–
NC(=O)c1ncn([C@@H]2O[C@H](CO)[C@@H](O)[C@H]2O)n1 [RBV, Ribavirin, reference compound]	> 100	–	–	37	–	–	Selectivity Index [4]: > 2; effect on viral titer (result in words) (HTNV [7]; 50 µM): significant decline in viral titer
O=C(Nc1ccc(-n2nc3cc(Cl)c(Cl)cc3n2)cc1)NC1CCCCC1 [2n]	> 30	71	–	≤ 5	–	–	Selectivity Index [4]: > 7.5; EC50 [4]: 4 µM; effect on viral titer (result in words) (HTNV [7]): significant reduction of viral titer
C#Cc1ncn([C@@H]2O[C@H](CO)[C@@H](O)[C@H]2O)n1 [ETAR, 1-beta-d-ribofuranosyl-3-ethynyl-[1,2,4] triazole]	–	–	–	–	–	–	EC50 (HTNV [8]): 10 µM
CCCCNC(=O)Nc1ccc(-n2nc3cc(C)c(C)cc3n2)cc1 [4m]	> 30	> 100	> 100	> 30	> 100	> 100	–
Nc1ccc(-n2nnc3cc(Cl)c(Cl)cc32)cc1 [1a]	> 30	> 100	–	> 30	–	≥ 100	–
COc1cc(C(=O)Nc2ccc(-n3nc4ccccc4n3)cc2)cc(OC)c1OC [3j, N-(4-(2H-benzo[d][1,2,3]triazol-2-yl)phenyl)-3,4,5-trimethoxybenzamide]	> 30	> 100	> 100	> 30	> 100	> 100	melting point: 227 to 229 °C
Cc1ccc(C(=O)Nc2ccc(-n3nc4cc(Cl)c(Cl)cc4n3)cc2)cc1 [2f]	> 30	> 100	–	22	–	–	–
NC(=O)c1nc(F)c[nH]c1=O [Favipiravir]	–	–	–	–	–	–	EC50 (HTNV [8]): 151 µM
CC(=O)Nc1ccc(-n2nc3cc(Cl)c(Cl)cc3n2)cc1 [2b]	> 30	> 100	–	> 30	–	–	–
COc1ccc(C(=O)Nc2ccc(-n3nc4cc(Cl)c(Cl)cc4n3)cc2)cc1 [2i]	> 30	> 100	–	> 30	–	≥ 100	–
O=C(Nc1ccc(-n2nc3ccccc3n2)cc1)NC1CCCCC1 [3n]	> 30	> 100	> 100	> 30	95	> 100	–
O=C(Nc1ccc(-n2nnc3cc(Cl)c(Cl)cc32)cc1)c1ccc(Cl)cc1 [1g]	> 30	> 100	–	≥ 30	≥ 100	–	–
CCCC(=O)N(C(=O)CCC)c1ccc(-n2nnc3cc(Cl)c(Cl)cc32)cc1 [1e]	25	16	–	> 25	–	–	–
CCNC(=O)Nc1ccc(-n2nc3cc(C)c(C)cc3n2)cc1 [4k]	> 30	> 100	> 100	> 30	> 100	> 100	–
CCCCNC(=O)Nc1ccc(-n2nc3cc(Cl)c(Cl)cc3n2)cc1 [2m]	> 30	> 100	–	> 30	95	–	–
Cc1ccc(C(=O)Nc2ccc(-n3nc4ccccc4n3)cc2)cc1 [3f, N-(4-(2H-benzo[d][1,2,3]triazol-2-yl)phenyl)-4-methylbenzamide]	> 30	> 100	> 100	> 30	> 100	> 100	melting point: 266 to 268 °C
CCNC(=O)Nc1ccc(-n2nc3cc(Cl)c(Cl)cc3n2)cc1 [2k]	> 30	> 100	–	26	–	–	–
CCC(=O)Nc1ccc(-n2nnc3cc(Cl)c(Cl)cc32)cc1 [1c]	20	54	≥ 100	> 20	–	–	–

SMILES	CC50 (in vitro [1]) [µM]	CC50 (in vitro [2]) [µM]	CC50 (in vitro [3]) [µM]	EC50 [4, 9] [µM]	CC50 (in vitro [5]) [µM]	CC50 (in vitro [6]) [µM]	other results
CCCNC(=O)Nc1ccc(-n2nc3cc(Cl)c(Cl)cc3n2)cc1 [2l]	30	40	–	≤ 5	–	–	Selectivity Index [4]: 6; EC50 [4]: 5 µM; effect on viral titer (result in words) (HTNV [7]): significant reduction of viral titer
Cc1ccc(C(=O)Nc2ccc(-n3nnc4cc(Cl)c(Cl)cc43)cc2)cc1 [1f]	> 30	≥ 100	–	> 30	–	–	–
CCNC(=O)Nc1ccc(-n2nc3ccccc3n2)cc1 [3k]	> 30	> 100	> 100	> 30	> 100	–	–
CCC(=O)N(C(=O)CC)c1ccc(-n2nc3cc(Cl)c(Cl)cc3n2)cc1 [2d]	> 30	26	73	> 30	≥ 100	–	–
O=C(Nc1ccc(-n2nnc3cc(Cl)c(Cl)cc32)cc1)c1ccc([N+](=O)[O-])cc1 [1h]	> 30	96	–	21	–	–	–
CCC(=O)Nc1ccc(-n2nc3cc(Cl)c(Cl)cc3n2)cc1 [2c]	> 30	> 100	–	> 30	–	–	–
CCCNC(=O)Nc1ccc(-n2nc3ccccc3n2)cc1 [3l]	> 30	> 100	> 100	> 30	> 100	> 100	–
CCCNC(=O)Nc1ccc(-n2nc3cc(C)c(C)cc3n2)cc1 [4l]	> 30	> 100	> 100	> 30	> 100	> 100	–
CC(=O)Nc1ccc(-n2nnc3cc(Cl)c(Cl)cc32)cc1 [1b]	20	53	–	> 20	–	–	–
O=C(Nc1ccc(-n2nc3cc(Cl)c(Cl)cc3n2)cc1)c1ccc(Cl)cc1 [2g]	> 30	> 100	–	> 30	95	–	–
O=C(Nc1ccc(-n2nc3cc(Cl)c(Cl)cc3n2)cc1)c1ccc([N+](=O)[O-])cc1 [2h]	> 30	> 100	–	> 30	–	–	–
COc1ccc(C(=O)Nc2ccc(-n3nnc4cc(Cl)c(Cl)cc43)cc2)cc1 [1i]	> 30	> 100	–	> 30	–	–	–
Cc1ccc(C(=O)Nc2ccc(-n3nc4cc(C)c(C)cc4n3)cc2)cc1 [4f, N-(4-(5,6-dimethyl-2H-benzo[d][1,2,3]triazol-2-yl)phenyl)-4-methylbenzamide]	> 30	> 100	> 100	> 30	> 100	> 100	melting point: 295 to 296 °C
CCCC(=O)N(C(=O)CCC)c1ccc(-n2nc3cc(Cl)c(Cl)cc3n2)cc1 [2e]	> 30	62	–	> 30	≥ 100	–	–
COc1cc(C(=O)Nc2ccc(-n3nnc4cc(Cl)c(Cl)cc43)cc2)cc(OC)c1OC [1j]	> 30	> 100	–	> 30	–	–	–
COc1cc(C(=O)Nc2ccc(-n3nc4cc(C)c(C)cc4n3)cc2)cc(OC)c1OC [4j, N-(4-(5,6-dimethyl-2H-benzo[d][1,2,3]triazol-2-yl)phenyl)-3,4,5-trimethoxybenzamide]	> 30	> 100	> 100	> 30	> 100	–	melting point: 272 to 273 °C
Cc1cc2nn(-c3ccc(NC(=O)NC4CCCCC4)cc3)nc2cc1C [4n]	> 30	> 100	> 100	> 30	95	> 100	–
Nc1ccc(-n2nc3cc(Cl)c(Cl)cc3n2)cc1 [2a]	> 30	> 100	–	> 30	≥ 100	–	–
COc1cc(C(=O)Nc2ccc(-n3nc4cc(Cl)c(Cl)cc4n3)cc2)cc(OC)c1OC [2j]	> 30	35	–	≤ 5	–	–	Selectivity Index [4]: > 7.5; EC50 [4]: 4 µM; effect on viral titer (result in words) (HTNV [7]): significant reduction of viral titer; reduction of viral titer (HTNV [7]): 2.14 log10
